The source of these data is patent publication US20250197408A1, “CRYSTALLINE FORMS AND SALTS OF A PI3K INHIBITOR AND METHODS OF MAKING AND METHODS OF USE THEREOF” (Totus Medicines Inc., priority 2022, published 2025).

Holding throughout (assay type): cell-based
One assay relates to UM-UC-3 (bladder). The assay can be described thus: Cell proliferation assay (CellTiter-Glo, 3 days treatment), UM-UC-3. The conditions noted are these: read-out: Absolute IC50. An excerpt: (§1) The cell lines tested included as follows: UM-UC-3 (bladder), KYSE-410 (HN/Esophagus), SW1463 (rectum), Calu-1 (Lung), NCI-H358 (Lung), SW837 (Rectum), SW756 (Cervix), NCI-H2122 (Lung), NCI-H1373 (Lung), NCI-H1792 (Lung), NCI-H23 (Lung), MIA PaCa-2 (Pancreas), and HC44.
(§2) Cells were recovered and maintained in appropriate culture media. The cells were harvested respectively during the logarithmic growth period. The cells were then resuspended and counted using a Vi cell counter (The cell viability be measured by trypan blue exclusion assay.). The cells were then diluted and 90 μL cell suspensions were used in 96-well plates according to plate map with final cell density. Two duplicate plates were set up. One is for day 0 reading (TO) and the other was cultured in incubator for reading at the end point. The incubated plates were incubated overnight in humidified incubator at 37° C. with 5% CO2.
(§3) At day 0, 10 μL culture medium to each well for TO reading. 10 μL of culture medium was added to each well for TO reading. Then, 50 μl CellTiter-Glo® Reagent was added to each well. […] Luminescence was then recorded using an EnVision Multi Label Reader. […]
(§4) For the endpoint CTG reading, 50 μL of CellTiter-Glo® Reagent were added to each well. […] Luminescence was then recorded using an EnVision Multi Label Reader. IC50's were determined for each cell line.

For another assay, the system named is SW1463 (rectum). The assay can be described thus: Cell proliferation assay (CellTiter-Glo, 3 days treatment), SW1463. To be noted: read-out: Absolute IC50.
Source text: as §1, §2, §3, §4

The test system of the next assay is SW756 (Cervix). The experiment in a line: Cell proliferation assay (CellTiter-Glo, 3 days treatment), SW756. The conditions noted are these: read-out: Absolute IC50.
Source text: as §1, §2, §3, §4

The test system of the next assay is NCI-H1792 (Lung). The assay can be described thus: Cell proliferation assay (CellTiter-Glo, 3 days treatment), NCI-H1792. The conditions noted are these: read-out: Absolute IC50.
Source text: as §1, §2, §3, §4

In the next assay the test system is KYSE-410 (HN/Esophagus). The assay can be described thus: Cell proliferation assay (CellTiter-Glo, 3 days treatment), KYSE-410. The conditions noted are these: read-out: Absolute IC50.
Source text: as §1, §2, §3, §4

The next assay concerns NCI-H2122 (Lung). The assay can be described thus: Cell proliferation assay (CellTiter-Glo, 3 days treatment), NCI-H2122. To be noted: read-out: Absolute IC50.
Source text: as §1, §2, §3, §4

Another assay concerns Calu-1 (Lung). The assay can be described thus: Cell proliferation assay (CellTiter-Glo, 3 days treatment), Calu-1. The conditions noted are these: read-out: Absolute IC50.
Source text: as §1, §2, §3, §4

In a further assay the test system is MIA PaCa-2 (Pancreas). The experiment in a line: Cell proliferation assay (CellTiter-Glo, 3 days treatment), MIA PaCa-2. To be noted: read-out: Absolute IC50.
Source text: as §1, §2, §3, §4

In a further assay the test system is HC44. The assay can be described thus: Cell proliferation assay (CellTiter-Glo, 3 days treatment), HC44. To be noted: HCC44 (Lung), read-out: Absolute IC50.
Source text: as §1, §2, §3, §4

The test system of the next assay is SW837 (Rectum). The experiment in a line: Cell proliferation assay (CellTiter-Glo, 3 days treatment), SW837. To be noted: read-out: Absolute IC50.
Source text: as §1, §2, §3, §4

In the next assay the test system is NCI-H1373 (Lung). The assay can be described thus: Cell proliferation assay (CellTiter-Glo, 3 days treatment), NCI-H1373. To be noted: read-out: Absolute IC50.
Source text: as §1, §2, §3, §4

The subject of a further assay is NCI-H23 (Lung). The experiment in a line: Cell proliferation assay (CellTiter-Glo, 3 days treatment), NCI-H23. The conditions noted are these: read-out: Absolute IC50.
Source text: as §1, §2, §3, §4

For a further assay, the system named is NCI-H358 (Lung). The assay can be described thus: Cell proliferation assay (CellTiter-Glo, 3 days treatment), NCI-H358. The conditions noted are these: NCI-H358 (Lung), 3 days treatment; read-out: Absolute IC50.
Source text: as §1, §2
At day 0, 10 μL culture medium to each well for TO reading. Then, 50 μl CellTiter-Glo® Reagent was added to each well. The contents were then mixed for 2 minutes on an orbital shaker to facilitate cell lysis. The plates were then allowed to incubate at room temperature for 10 minutes to stabilize luminescent signal. Luminescence was then recorded using an EnVision Multi Label Reader. The test compound Compound I, and a control cisplatin, where then diluted at various concentrations from a 10 mM stock solution. Compound I was diluted and 10 μL of each 10× compound I from working solutions for a concentration ranging from 10 μM to about 0.005 μM. Cisplatin was diluted to about […] to about 150 nM. The screening plates were then placed back into the incubator for the appropriate treatment time (3 days).
For the endpoint CTG reading, 50 μL of CellTiter-Glo® Reagent were added to each well. The contents were then mixed for 2 minutes on an orbital shaker to facilitate cell lysis. […] Luminescence was then recorded using an EnVision Multi Label Reader. IC50's were determined for each cell line.

`N.N.[Cl][Pt][Cl]` [cisplatin, reference compound]: the half-maximal inhibitory concentration (IC50) in the assay on UM-UC-3 (bladder) stood at 1.86 µM; in the assay on SW1463 (rectum) it was 12.2 µM; in the assay on SW756 (Cervix) it was 10.3 µM; with NCI-H1792 (Lung), 4.88 µM; in the assay with KYSE-410 (HN/Esophagus), 15.8 µM; in the assay on NCI-H2122 (Lung), 17.8 µM. The half-maximal inhibitory concentration (IC50) with Calu-1 (Lung) was determined as 10.2 µM; in the assay with MIA PaCa-2 (Pancreas) it was 7.03 µM; with HC44, 7.96 µM; with SW837 (Rectum), 42.5 µM; with NCI-H1373 (Lung) it was 8.72 µM; in the assay on NCI-H23 (Lung), 3.58 µM. Further, the half-maximal inhibitory concentration (IC50) in the assay with NCI-H358 (Lung) was 12.5 µM.
